Results published in publication PMC8434109, “Synthesis and Biological Activity of a Cytostatic Inhibitor of MLLr Leukemia Targeting the DOT1L Protein” (Molecules, 2021).

Legend:
MV4-11 cells = experiment: Flow cytometry cell cycle analysis (propidium iodide); assay type: cell-based, human; conditions: for percentage of cells in the G0/G1 phase / percentage of cells in the S phase: MV4-11, 3.2 µM
Experimental: A decrease in the S phase of the cell cycle was also observed from 24% (day 8) to 20% (day 10), 13% (day 12).
In a 12-well plate, 2 mL exponentially growing MV4-11 cells were plated with a density of 2 × 10^5 cells/mL. […] Culture media and drugs were replaced every 2–3 days and cells were split back to a density of 2 × 10^5 cells/mL at the same time. Cells were harvested on days 8, 10, 12 and split to allow the analysis of cell cycle and Annexin V staining simultaneously. The apoptosis ratio was detected by an Annexin V-APC/7-AAD double staining assay (SONY 3804610) and cells were prepared according to the manufacturer’s recommendations. Cells for the cell cycle analysis were collected by centrifugation at 500× g for 5 min at 4 °C. The pellets were washed once with cold PBS and then fixed with 70% ethanol on ice for 30 min. Afterwards, the cells were washed once with cold PBS and stained with propidium iodide (Invitrogen P3566) for 30 min at 37 °C. Samples were measured using an Attune NxT acoustic focusing cytometer (Life Technologies), data were analyzed by FlowJo.

G9a = target: T1, G9a (Homo sapiens, UniProt Q96KQ7); experiment: HMT selectivity panel (Reaction Biology); assay type: biochemical; conditions: substrate Histone H3 1-21, read-out: Enzyme % Activity (relative to DMSO controls)
T1 construct: purchased Reaction Biology
T1 sequence (Q96KQ7 1-1210): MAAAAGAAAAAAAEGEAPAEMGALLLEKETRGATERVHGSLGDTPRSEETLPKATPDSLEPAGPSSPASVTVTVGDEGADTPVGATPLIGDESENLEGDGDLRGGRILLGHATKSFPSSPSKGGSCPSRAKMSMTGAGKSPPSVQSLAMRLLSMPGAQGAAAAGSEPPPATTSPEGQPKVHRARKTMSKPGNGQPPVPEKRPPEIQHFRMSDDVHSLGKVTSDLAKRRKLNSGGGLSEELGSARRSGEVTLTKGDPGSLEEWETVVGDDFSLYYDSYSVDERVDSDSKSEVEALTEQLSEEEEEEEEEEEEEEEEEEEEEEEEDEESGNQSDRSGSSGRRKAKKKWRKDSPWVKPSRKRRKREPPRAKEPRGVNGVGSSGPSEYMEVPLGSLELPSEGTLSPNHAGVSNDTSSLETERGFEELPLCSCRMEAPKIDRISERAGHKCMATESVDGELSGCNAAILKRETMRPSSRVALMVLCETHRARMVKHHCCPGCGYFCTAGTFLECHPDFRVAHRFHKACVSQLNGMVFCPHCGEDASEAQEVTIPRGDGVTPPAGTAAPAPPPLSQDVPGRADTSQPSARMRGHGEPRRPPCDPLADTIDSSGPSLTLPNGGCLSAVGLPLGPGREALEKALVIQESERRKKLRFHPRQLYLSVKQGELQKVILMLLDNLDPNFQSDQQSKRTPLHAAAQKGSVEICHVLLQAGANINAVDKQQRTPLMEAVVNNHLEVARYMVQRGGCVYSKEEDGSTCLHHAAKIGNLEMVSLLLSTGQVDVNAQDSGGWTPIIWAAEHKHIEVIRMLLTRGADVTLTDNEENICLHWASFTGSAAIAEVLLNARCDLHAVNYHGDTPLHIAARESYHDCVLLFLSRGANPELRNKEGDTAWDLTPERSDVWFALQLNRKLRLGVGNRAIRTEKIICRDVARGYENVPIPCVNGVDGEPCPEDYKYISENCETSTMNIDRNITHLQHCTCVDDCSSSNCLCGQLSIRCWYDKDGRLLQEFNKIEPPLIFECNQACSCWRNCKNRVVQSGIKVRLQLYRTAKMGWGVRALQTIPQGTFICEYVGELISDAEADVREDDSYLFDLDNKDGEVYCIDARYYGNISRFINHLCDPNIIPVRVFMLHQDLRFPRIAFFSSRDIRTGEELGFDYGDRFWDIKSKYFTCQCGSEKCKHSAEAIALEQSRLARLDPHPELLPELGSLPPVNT
Experimental: (§1) Table S1: Selectivity of the compound on a HMT panel (by Reaction Biology, USA) and on hDNMT3Acat (as described in Ceccaldi
(§2) Enzyme % Activity (relative to DMSO
(§3) Testing Concentration 10µM
(§4) Methyltransferase: Substrate: Activity enzyme in %

PRMT4 = target: T2, PRMT4 (Homo sapiens, UniProt Q86X55); experiment: HMT selectivity panel (Reaction Biology); assay type: biochemical; conditions: substrate Histone H3, read-out: Enzyme % Activity (relative to DMSO controls)
T2 construct: purchased Reaction Biology
T2 sequence (Q86X55 1-608): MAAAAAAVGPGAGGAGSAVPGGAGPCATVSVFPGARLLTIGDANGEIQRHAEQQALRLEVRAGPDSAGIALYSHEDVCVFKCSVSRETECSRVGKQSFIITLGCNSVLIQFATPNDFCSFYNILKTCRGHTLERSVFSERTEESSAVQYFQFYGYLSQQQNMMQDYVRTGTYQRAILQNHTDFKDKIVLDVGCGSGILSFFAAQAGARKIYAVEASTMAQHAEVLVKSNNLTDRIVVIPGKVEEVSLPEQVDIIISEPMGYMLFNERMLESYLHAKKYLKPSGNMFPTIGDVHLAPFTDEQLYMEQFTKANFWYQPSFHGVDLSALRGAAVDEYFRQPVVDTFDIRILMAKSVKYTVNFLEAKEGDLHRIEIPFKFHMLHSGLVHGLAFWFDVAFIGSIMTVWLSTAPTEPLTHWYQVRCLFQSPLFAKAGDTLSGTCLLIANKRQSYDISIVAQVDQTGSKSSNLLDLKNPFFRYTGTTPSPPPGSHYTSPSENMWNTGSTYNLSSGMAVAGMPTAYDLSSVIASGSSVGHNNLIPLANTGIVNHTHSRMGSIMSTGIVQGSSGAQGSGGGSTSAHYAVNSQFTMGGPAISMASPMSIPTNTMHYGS
Experimental: as §1, §2, §3, §4

SMYD2 = target: T3, SMYD2 (Homo sapiens, UniProt Q9NRG4); experiment: HMT selectivity panel (Reaction Biology); assay type: biochemical; conditions: substrate Histone H4, read-out: Enzyme % Activity (relative to DMSO controls)
T3 construct: purchased Reaction Biology
Experimental: as §1, §2, §3, §4

EZH2 Complex = target: T4, EZH2 Complex (Homo sapiens, UniProt Q15910); experiment: HMT selectivity panel (Reaction Biology); assay type: biochemical; conditions: substrate Core Histone, read-out: Enzyme % Activity (relative to DMSO controls)
T4 construct: purchased Reaction Biology
Experimental: as §1, §2, §3, §4

PRMT6 = target: T5, PRMT6 (Homo sapiens, UniProt Q96LA8); experiment: HMT selectivity panel (Reaction Biology); assay type: biochemical; conditions: substrate GST-GAR, read-out: Enzyme % Activity (relative to DMSO controls)
T5 construct: purchased Reaction Biology
Experimental: as §1, §2, §3, §4

recombinant hDOT1L = recombinant hDOT1L (Homo sapiens, UniProt Q8TEK3); experiment: AlphaLISA DOT1L enzymatic inhibition assay on purified nucleosomes
Microsomal stability = assay type: in vitro ADME

T4 sequence (Q15910 2-746 limits assumed): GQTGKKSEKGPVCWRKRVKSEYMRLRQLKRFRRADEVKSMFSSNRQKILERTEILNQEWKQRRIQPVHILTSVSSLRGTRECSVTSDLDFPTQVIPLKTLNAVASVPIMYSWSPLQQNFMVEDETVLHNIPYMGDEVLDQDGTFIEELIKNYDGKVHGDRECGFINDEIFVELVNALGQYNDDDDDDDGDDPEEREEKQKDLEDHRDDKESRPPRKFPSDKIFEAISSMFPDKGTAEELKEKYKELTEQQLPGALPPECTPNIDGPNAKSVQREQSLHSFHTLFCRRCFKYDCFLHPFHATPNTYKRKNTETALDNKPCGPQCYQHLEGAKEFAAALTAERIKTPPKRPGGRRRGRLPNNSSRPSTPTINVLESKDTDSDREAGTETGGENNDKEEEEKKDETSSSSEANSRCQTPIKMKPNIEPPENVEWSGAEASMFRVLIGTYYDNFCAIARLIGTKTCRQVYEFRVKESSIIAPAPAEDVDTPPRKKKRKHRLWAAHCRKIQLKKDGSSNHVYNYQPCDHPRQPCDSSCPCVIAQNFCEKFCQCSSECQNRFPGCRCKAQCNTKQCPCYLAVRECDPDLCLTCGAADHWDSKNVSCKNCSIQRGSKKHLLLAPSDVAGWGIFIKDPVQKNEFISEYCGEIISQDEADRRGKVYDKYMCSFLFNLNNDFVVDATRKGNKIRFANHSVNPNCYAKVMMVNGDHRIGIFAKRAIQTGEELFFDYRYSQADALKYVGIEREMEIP
T4 sequence (O75530 2-441 partner limits assumed): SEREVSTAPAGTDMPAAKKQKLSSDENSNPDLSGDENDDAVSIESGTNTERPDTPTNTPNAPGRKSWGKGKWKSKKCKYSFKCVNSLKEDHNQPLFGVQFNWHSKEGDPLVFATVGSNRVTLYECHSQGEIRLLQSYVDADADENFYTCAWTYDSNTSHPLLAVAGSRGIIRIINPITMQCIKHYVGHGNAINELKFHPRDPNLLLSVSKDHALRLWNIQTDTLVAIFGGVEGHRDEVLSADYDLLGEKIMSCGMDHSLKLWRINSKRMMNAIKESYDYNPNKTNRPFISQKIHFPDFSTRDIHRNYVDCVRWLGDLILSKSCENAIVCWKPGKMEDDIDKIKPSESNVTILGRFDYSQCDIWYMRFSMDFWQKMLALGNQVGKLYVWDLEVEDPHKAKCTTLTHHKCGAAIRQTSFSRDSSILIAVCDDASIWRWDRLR
T4 sequence (Q15022 2-739 partner limits assumed): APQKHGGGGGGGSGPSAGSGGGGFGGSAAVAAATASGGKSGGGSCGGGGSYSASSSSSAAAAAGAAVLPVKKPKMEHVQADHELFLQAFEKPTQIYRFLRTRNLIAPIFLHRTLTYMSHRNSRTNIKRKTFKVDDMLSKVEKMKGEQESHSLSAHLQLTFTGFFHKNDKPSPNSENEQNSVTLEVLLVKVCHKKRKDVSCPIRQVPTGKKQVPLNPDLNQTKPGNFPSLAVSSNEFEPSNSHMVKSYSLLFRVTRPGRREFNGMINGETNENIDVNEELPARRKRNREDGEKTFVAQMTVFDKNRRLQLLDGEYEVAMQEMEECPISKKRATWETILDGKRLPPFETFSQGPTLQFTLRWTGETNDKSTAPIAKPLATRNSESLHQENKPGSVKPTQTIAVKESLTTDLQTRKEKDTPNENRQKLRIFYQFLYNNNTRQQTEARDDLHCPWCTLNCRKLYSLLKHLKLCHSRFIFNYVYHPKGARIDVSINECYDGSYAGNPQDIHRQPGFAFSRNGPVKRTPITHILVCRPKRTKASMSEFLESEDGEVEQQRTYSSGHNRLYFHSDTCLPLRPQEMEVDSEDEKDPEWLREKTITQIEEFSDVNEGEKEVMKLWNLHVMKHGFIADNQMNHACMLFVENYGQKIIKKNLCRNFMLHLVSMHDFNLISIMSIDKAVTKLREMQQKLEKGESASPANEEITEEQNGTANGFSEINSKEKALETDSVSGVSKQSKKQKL
T4 sequence (Q09028 2-425 partner limits assumed): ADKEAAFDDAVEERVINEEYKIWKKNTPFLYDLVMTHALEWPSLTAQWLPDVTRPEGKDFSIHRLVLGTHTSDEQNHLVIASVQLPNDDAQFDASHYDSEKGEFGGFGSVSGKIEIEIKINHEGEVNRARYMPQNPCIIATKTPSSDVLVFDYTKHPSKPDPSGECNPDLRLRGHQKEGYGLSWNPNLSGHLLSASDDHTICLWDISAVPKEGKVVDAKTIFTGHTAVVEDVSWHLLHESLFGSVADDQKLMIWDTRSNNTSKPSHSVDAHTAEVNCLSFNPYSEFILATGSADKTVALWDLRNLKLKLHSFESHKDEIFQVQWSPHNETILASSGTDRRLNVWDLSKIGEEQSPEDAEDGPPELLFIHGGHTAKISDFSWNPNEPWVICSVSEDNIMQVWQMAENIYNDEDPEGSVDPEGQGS
T4 sequence (Q6ZN18 whole entry partner): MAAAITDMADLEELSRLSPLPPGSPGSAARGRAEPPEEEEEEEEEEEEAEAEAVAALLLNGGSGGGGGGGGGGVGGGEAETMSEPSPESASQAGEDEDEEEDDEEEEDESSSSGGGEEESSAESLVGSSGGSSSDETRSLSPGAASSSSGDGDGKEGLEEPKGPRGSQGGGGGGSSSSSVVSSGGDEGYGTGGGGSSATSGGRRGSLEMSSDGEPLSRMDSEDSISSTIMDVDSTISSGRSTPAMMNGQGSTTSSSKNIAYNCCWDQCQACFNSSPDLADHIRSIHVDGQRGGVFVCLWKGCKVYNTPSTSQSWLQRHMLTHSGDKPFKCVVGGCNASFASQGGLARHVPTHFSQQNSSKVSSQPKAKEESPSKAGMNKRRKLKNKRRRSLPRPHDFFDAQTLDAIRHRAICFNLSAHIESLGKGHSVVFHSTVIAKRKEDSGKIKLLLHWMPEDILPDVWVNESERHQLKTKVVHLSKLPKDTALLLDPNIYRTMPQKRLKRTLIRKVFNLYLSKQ
T5 sequence (Q96LA8 whole entry): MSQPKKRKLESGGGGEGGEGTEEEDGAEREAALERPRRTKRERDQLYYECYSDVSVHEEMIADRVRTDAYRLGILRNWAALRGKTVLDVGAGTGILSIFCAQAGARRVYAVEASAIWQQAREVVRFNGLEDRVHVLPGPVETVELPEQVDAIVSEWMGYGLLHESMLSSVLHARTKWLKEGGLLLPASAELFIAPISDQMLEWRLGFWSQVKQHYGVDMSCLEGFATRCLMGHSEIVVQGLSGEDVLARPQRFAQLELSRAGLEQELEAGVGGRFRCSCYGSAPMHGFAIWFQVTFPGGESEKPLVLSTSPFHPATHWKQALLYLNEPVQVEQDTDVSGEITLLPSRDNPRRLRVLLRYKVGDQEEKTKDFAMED
T3 sequence (Q9NRG4 whole entry): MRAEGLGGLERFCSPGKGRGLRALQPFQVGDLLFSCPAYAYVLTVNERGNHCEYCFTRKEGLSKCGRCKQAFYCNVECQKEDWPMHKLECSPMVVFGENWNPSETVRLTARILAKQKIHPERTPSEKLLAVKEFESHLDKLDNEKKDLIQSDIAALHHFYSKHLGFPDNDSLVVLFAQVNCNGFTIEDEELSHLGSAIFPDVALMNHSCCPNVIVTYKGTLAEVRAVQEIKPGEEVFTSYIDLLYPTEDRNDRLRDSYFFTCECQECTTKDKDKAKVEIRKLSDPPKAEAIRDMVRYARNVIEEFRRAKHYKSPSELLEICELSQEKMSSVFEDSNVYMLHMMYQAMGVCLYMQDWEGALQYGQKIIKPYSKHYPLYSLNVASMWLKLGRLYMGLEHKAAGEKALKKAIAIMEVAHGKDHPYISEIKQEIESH
recombinant hDOT1L, sequence (Q8TEK3 1-416): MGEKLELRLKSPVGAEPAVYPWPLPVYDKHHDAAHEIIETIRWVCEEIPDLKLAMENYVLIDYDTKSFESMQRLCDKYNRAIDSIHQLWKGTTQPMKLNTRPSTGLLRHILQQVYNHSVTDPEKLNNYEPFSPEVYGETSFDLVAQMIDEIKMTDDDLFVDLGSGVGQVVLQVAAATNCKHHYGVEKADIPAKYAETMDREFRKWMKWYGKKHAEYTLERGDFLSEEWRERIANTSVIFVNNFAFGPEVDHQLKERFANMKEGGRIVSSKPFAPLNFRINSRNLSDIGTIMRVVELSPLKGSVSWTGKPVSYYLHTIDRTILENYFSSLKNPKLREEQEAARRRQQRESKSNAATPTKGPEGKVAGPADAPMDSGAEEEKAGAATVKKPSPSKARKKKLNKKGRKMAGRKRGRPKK

## CC(C)[C@H](CCCNC(=O)Nc1ccc(C(C)(C)C)cc1)N[C@H]1C[C@@H](n2cnc3c(N)ncnc32)[C@H](O)[C@@H]1O [Dia2, 1-((S)-4-(((1S,2R,3S,4R)-4-(6-amino-9H-purin-9-yl)-2,3-dihydroxycyclopentyl)amino)-5-methylhexyl)-3-(4-(tert-butyl)phenyl)urea]
MV4-11 cells; MV4-11, 1 µM
  effect on the cell cycle: does not affect the cell cycle
MV4-11 cells; day 8
  percentage of cells in the G0/G1 phase: 53%
  percentage of cells in the S phase: 24%
MV4-11 cells; day 10
  percentage of cells in the G0/G1 phase: 41%
  percentage of cells in the S phase: 20%
MV4-11 cells; day 12
  percentage of cells in the G0/G1 phase: 24%
  percentage of cells in the S phase: 13%
G9a
  remaining activity at 10 µM: 97 ± 1%
PRMT4
  remaining activity at 10 µM: 92 ± 1%
SMYD2
  remaining activity at 10 µM: 92 ± 1%
EZH2 Complex
  remaining activity at 10 µM: 86 ± 1%
PRMT6
  remaining activity at 10 µM: 95 ± 1%
Recombinant hDOT1L
  IC50: 4.7 nM
Microsomal stability; mouse liver microsomes, versus EPZ-4777 and EPZ-5676
  half-life increase: 2 fold
Microsomal stability; mouse liver microsomes, read-out: intrinsic clearance
  microsomal CLint: 121 µL/min/mg
Microsomal stability; mouse, liver microsomes
  half-life: 11.5 min
